Experiments:
[1] = system: oxonic acid (OA)-induced hyperuricemic model in Sprague-Dawley rats; assay: Example 4: micropuncture glomerular hemodynamics and mean arterial pressure under anesthesia in normal and OA-dosed rats; assay type: in vivo; settings: for mean arterial blood pressure (effect in words): end of study, FIG. 3
Protocol: Materials and Methods. To produce hyperuricemia, rats received OA (Sigma, St Louis Mo., USA) 750 mg/kg body weight daily by gastric gavage. To investigate the treatment effect of febuxostat (also referred to herein as “Fx”), the drug was administered in drinking water at 50 mg/L (approximately 5-6 mg/kg/day) four weeks after OA dosing while the respective controls received 5.84 mg/L of NaCl in drinking water (to maintain a salt concentration equivalent to the Febuxostat-containing water). The following four groups (n=10-11) were included in the study: Group 1, normal control rats which received no treatment for eight weeks; Group 2, Normal+Febuxostat rats which received no treatment for four weeks and then were treated with febuxostat for four weeks from Weeks 5 to 8; Group 3, OA rats which received OA for eight weeks; and Group 4, OA+Febuxostat rats which received OA for eight weeks and febuxostat for four weeks from Weeks 5 to 8. Body weight, food and water intakes were measured daily. Systolic blood pressure, obtained in conscious rats by a tail cuff sphygmomanometer, and plasma uric acid were measured in all animals at baseline and at the end of four and eight weeks. A renal micropuncture procedure along with systemic arterial blood pressure monitoring under pentobarbital anesthesia were performed at the end of eight weeks followed by morphologic evaluation of the renal preglomerular microvasculature.
Micropuncture Procedure to Assess Glomerular Hemodynamics. Animals were anesthetized with pentobarbital sodium (30 mg/kg, i.p.) and placed on a thermoregulated table to maintain body temperature at 37° C. Trachea, jugular veins, femoral arteries and the left ureter were catheterized with polyethylene tubing (PE-240, PE-50 and PE-10). The left kidney was exposed, placed in a Lucite holder, sealed with agar and covered with Ringer's solution. Mean arterial pressure (hereinafter “MAP”) was monitored using a pressure transducer (Model p23 db; Gould, San Juan, PR) connected to the catheter in the femoral artery and recorded on a polygraph (Grass Instruments, Quincy, Mass., USA). Blood samples were taken periodically and replaced with blood from a donor rat. Rats were maintained under euvolemic conditions by infusion of 10 mL/kg of body weight of isotonic rat plasma during surgery, followed by an infusion of 25% polyfructosan at 2.2 mL/h (Mutest, Fresenius Kabi, Linz, Austria). After 60 min, five to seven samples of proximal tubular fluid were obtained to determine flow rate and polyfructosan concentrations. Intratubular pressure under free-flow (hereinafter “FF”) and stop-flow (hereinafter “SFP”) conditions and peritubular capillary pressure (hereinafter “Pc”) were measured in other proximal tubules with a servo-null device (Servo Nulling Pressure System; Instrumentation for Physiology and Medicine, San Diego, Calif., USA). Glomerular colloid osmotic pressure was estimated from protein concentrations obtained from blood of the femoral artery (hereinafter “Ca”) and surface efferent arterioles (hereinafter “Ce”). Polyfructosan was measured in plasma and urine samples by the anthrone-based technique of Davidson and Sackner (See, Davidson W D et al., J Lab Clin Med 62:351-356 (1963)). Plasma samples were deproteinated first with trichloroacetic acid. After centrifugation, the supernatant was used for polyfructosan measurement. Polyfructosan concentrations in plasma and urine samples were assessed by addition of anthrone reagent followed by incubation at 45° C. for 50 min and reading in a spectrophotometer set at wavelength of 620 nm. Concentrations were calculated by interpolating the absorbance values using a standard curve (0.01-0.05 mg/mL). Total glomerular filtration rate (hereinafter “GFR”) was calculated using the following formula: GFR=(U×V)/P, where U is the polyfructosan concentration in urine, V is urine flow rate, and P is the polyfructosan concentration in plasma. […]

[2] = system: subjects having a systolic BP≧160 mmHg or diastolic BP≧95 mmHg (elevated blood pressure); assay: Example 3: blood pressure change in subjects with elevated blood pressure, none taking angiotensin antagonists (two double-blind studies); assay type: in vivo, human
Protocol: None of these subjects were taking any angiotensin antagonists, but might have been taking some other type of antihypertensive drug at the baseline (start) of the study. These 187 subjects were part of two (2) DB studies. One study was of 28 weeks in duration during which subjects received 80 mg, 120 mg or 240 mg QD of febuxostat or placebo or allopurinol 300 or 100 mg QD, depending on the subject's renal function. The second study was of 52 weeks in duration during which subjects received 80 mg or 120 mg QD of febuxostat or allopurinol 300 mg QD. Of these 187 subjects, all completed 4 weeks of treatment and 132 completed 28 weeks of treatment. A total of 52 weeks of treatment was completed by 15 subjects in the febuxostat 80 mg QD group, 11 in the febuxostat 120 mg QD group and 22 in the allopurinol 300/100 mg QD group. Because of the shorter duration of one of the 2 DB studies, no subject in the placebo and febuxostat 240 mg QD groups were treated for 52 weeks.

[3] = Normal + FX rats, end of eight weeks
[4] = OA + Fx rats, end of eight weeks
[5] = 80 mg QD, after 4 weeks of treatment
[6] = 80 mg QD, after 28 weeks of treatment
[7] = 80 mg QD, after 52 weeks of treatment
[8] = 120 mg QD, after 4 weeks of treatment
[9] = 120 mg QD, after 28 weeks of treatment
[10] = 120 mg QD, after 52 weeks of treatment
[11] = 240 mg QD, after 4 weeks of treatment
[12] = 240 mg QD, after 28 weeks of treatment

Cc1nc(-c2ccc(OCC(C)C)c(C#N)c2)sc1C(=O)O [febuxostat, 2-[3-cyano-4-(2-methylpropoxy)phenyl]-4-methylthiazole-5-carboxylic acid]
FF (free flow tubular pressure) [1, 3]: 13.4 ± 0.8 mmHg
GFR (glomerular filtration rate) [1, 3]: 0.9 ± 0.1 mL/min
Kf (ultrafiltration coefficient) [1, 3]: 0.046 ± 0.004 nL/s · mmHg
PGC (glomerular capillary pressure) [1, 3]: 46.3 ± 1.4 mmHg
Pc (peritubular capillary pressure) [1, 3]: 12.5 ± 0.8 mmHg
QA (glomerular plasma flow) [1, 3]: 135.0 ± 11.2 nL/min
SFP (stop flow pressure) [1, 3]: 30.7 ± 0.8 mmHg
SNGFR (single nephron GFR) [1, 3]: 34.6 ± 2.3 nL/min
MAP (mean arterial pressure) ([1]; Normal + FX rats, end of eight weeks, under anesthesia): 123 ± 3 mmHg
FF (free flow tubular pressure) [1, 4]: 12.9 ± 0.5 mmHg
GFR (glomerular filtration rate) [1, 4]: 1.0 ± 0.1 mL/min
Kf (ultrafiltration coefficient) [1, 4]: 0.070 ± 0.011 nL/s · mmHg
PGC (glomerular capillary pressure) [1, 4]: 46.5 ± 1.0 mmHg
Pc (peritubular capillary pressure) [1, 4]: 13.2 ± 0.7 mmHg
QA (glomerular plasma flow) [1, 4]: 183.6 ± 21.4 nL/min
SFP (stop flow pressure) [1, 4]: 29.7 ± 1.0 mmHg
SNGFR (single nephron GFR) [1, 4]: 45.7 ± 5.2 nL/min
ultrafiltration coefficient (Kf) compared to the other groups (in words) [1, 4]: numerically, but insignificantly higher
MAP (mean arterial pressure) ([1]; OA + Fx rats, end of eight weeks, under anesthesia, listed as Fx): 112 ± 5 mmHg
elevation in glomerular capillary pressure (PGC) and stop flow pressure (effect in words) ([1]; OA-treated rats, end of eight weeks): prevented these changes
mean arterial blood pressure (effect in words) ([1]; OA-treated rats, intra-arterial cannulation under anesthesia): reduced to the normal range
glomerular hemodynamics (effect in words) ([1]; normal rats, end of eight weeks): did not alter glomerular hemodynamics
mean arterial blood pressure (effect in words) ([1]; normal rats, under anesthesia): did not alter MAP
mean change from baseline for diastolic BP [2, 5]: −3.1 mmHg
mean change from baseline for mean arterial BP [2, 5]: −4.3 mmHg
mean change from baseline for systolic BP [2, 5]: −6.7 mmHg
mean change from baseline for diastolic BP [2, 6]: −7.3 mmHg
mean change from baseline for mean arterial BP [2, 6]: −9.0 mmHg
mean change from baseline for systolic BP [2, 6]: −12.6 mmHg
mean change from baseline for diastolic BP [2, 7]: −8.4 mmHg
mean change from baseline for mean arterial BP [2, 7]: −11.6 mmHg
mean change from baseline for systolic BP [2, 7]: −17.9 mmHg
mean change from baseline for diastolic BP [2, 8]: −7.5 mmHg
mean change from baseline for mean arterial BP [2, 8]: −7.8 mmHg
mean change from baseline for systolic BP [2, 8]: −8.5 mmHg
mean change from baseline for diastolic BP [2, 9]: −8.5 mmHg
mean change from baseline for mean arterial BP [2, 9]: −9.9 mmHg
mean change from baseline for systolic BP [2, 9]: −12.8 mmHg
mean change from baseline for diastolic BP [2, 10]: −7.4 mmHg
mean change from baseline for mean arterial BP [2, 10]: −11.1 mmHg
mean change from baseline for systolic BP [2, 10]: −18.6 mmHg
mean change from baseline for diastolic BP [2, 11]: −9.1 mmHg
mean change from baseline for mean arterial BP [2, 11]: −9.8 mmHg
mean change from baseline for systolic BP [2, 11]: −11.3 mmHg
mean change from baseline for diastolic BP [2, 12]: −4.9 mmHg
mean change from baseline for mean arterial BP [2, 12]: −6.3 mmHg
mean change from baseline for systolic BP [2, 12]: −9.2 mmHg
